Experimental data: US20050004126A1 (priority 2001, published 2005)
Structures can show the parent of a compound that is named as a salt. Where two headings read alike, the source gives them in different places.

Key:
[1] = target: MMP-3CD (catalytic domain of stromelysin) (Homo sapiens, UniProt P08254); assay: Thiopeptolide hydrolysis assay, MMP-3; format: biochemical; details: read-out: MMP03 IC50;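 also: inhibition of thiopeptolide substrate (100 µM) cleavage by the MMP-3 catalytic domain, detected with DTNB at pH 6.0 with CaCl2, hydrolysis compared against runs lacking inhibitor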
Procedure: (§1) They measure the amount by which a test compound reduces the hydrolysis of a thiopeptolide substrate caused by a matrix metalloproteinase enzyme.
(§2) Thiopeptolide substrates show virtually no decomposition or hydrolysis in the absence of a matrix metalloproteinase enzyme. A typical thiopeptolide substrate commonly utilized for assays is Ac-Pro-Leu-Gly-thioester-Leu-Leu-Gly-OEt. A 100 μL assay mixture will contain 50 mM of 2-morpholinoethane sulfonic acid monohydrate (MES, pH 6.0) 10 mM CaCl2, 100 μM thiopeptolide substrate, and 1 mM 5,5′-dithio-bis-(2-nitro-benzoic acid) (DTNB). […] Assays are carried out with and without matrix metalloproteinase inhibitor compounds, and the amount of hydrolysis is compared for a determination of inhibitory activity of the test compounds.

[2] = target: T1, MMP-1FL (full-length interstitial collagenase) (Homo sapiens, UniProt P03956); assay: Thiopeptolide hydrolysis assay, MMP-1; format: biochemical; details: read-out: MMP01 IC50
T1 sequence (P03956 100-469): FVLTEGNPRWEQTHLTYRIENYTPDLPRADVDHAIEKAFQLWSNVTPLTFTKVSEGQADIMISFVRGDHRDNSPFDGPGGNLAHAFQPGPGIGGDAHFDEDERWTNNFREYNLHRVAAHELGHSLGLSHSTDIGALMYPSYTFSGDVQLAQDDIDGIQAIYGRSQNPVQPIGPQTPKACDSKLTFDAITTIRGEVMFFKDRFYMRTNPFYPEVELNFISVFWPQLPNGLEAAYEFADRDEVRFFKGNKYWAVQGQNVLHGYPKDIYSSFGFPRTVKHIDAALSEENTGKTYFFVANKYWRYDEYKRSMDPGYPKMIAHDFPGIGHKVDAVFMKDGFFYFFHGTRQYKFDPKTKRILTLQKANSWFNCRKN
Procedure: as §1
Thiopeptolide substrates show virtually no decomposition or hydrolysis in the absence of a matrix metalloproteinase enzyme. A typical thiopeptolide substrate commonly utilized for assays is Ac-Pro-Leu-Gly-thioester-Leu-Leu-Gly-OEt. A 100 μL assay mixture will contain 50 mM of 2-morpholinoethane sulfonic acid monohydrate (MES, pH 6.0) 10 mM CaCl2, 100 μM thiopeptolide substrate, and 1 mM 5,5′-dithio-bis-(2-nitro-benzoic acid) (DTNB). […] The change in absorbance at 405 nm is monitored on a Thermo Max microplate reader (moleucular Devices, Menlo Park, Calif.) at room temperature (22° C.). […] Assays are carried out with and without matrix metalloproteinase inhibitor compounds, and the amount of hydrolysis is compared for a determination of inhibitory activity of the test compounds.

[3] = target: MMP-13CD (catalytic domain of collagenase 3) (Homo sapiens, UniProt P45452); assay: Thiopeptolide hydrolysis assay, MMP-13;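 also: inhibition of enzymatic thiopeptolide substrate cleavage (100 µM) in pH 6.0 MES buffer with CaCl2 and DTNB, comparing hydrolysis with versus without inhibitor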
Procedure: as §1, §2

Sequence of MMP-3CD (catalytic domain of stromelysin) (P08254 100-272 limits assumed): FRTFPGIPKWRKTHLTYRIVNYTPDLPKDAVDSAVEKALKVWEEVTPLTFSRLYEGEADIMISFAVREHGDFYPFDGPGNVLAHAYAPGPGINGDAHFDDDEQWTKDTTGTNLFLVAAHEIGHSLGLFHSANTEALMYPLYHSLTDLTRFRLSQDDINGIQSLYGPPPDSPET

Row | SMILES | IC50 ([1]; Table 1b) | IC50 ([2]; Table 1b) | IC50 ([3]; MMP13 IC50 (μM), Table 1b) | IC50 ([1]; Table II) | IC50 ([2]; Table II) | IC50 ([3]; MMP13 IC50 (nM), Table II)
1 | Cc1c(=O)n(Cc2ccccc2)c(=O)n2cc(C(=O)NCc3ccc(Cl)c(Cl)c3)sc12 | 20 µM | > 30 µM | 0.265 µM |  |  | 
2 | Cc1c(=O)n(Cc2ccc(-c3nn[nH]n3)cc2)c(=O)n2cc(C(=O)NCc3ccc(F)cc3)sc12 | 16 µM | > 100 µM | 0.0009 µM |  |  | 
3 | O=C(NCc1ccncc1)C1Cn2c(cc(=O)n(Cc3ccccc3)c2=O)S1 (stereo not drawn) | > 100 µM | > 100 µM | 0.59 µM |  |  | 
4 | COC(=O)Nc1cc(Cn2c(=O)c(C)c3sc(C(=O)NCc4ccc(F)cc4)cn3c2=O)on1 | > 30 µM | > 30 µM | 0.205 µM |  |  | 
5 | Cc1c(=O)n(Cc2ccc(Cl)cc2)c(=O)n2cc(C(=O)NCc3ccncc3)sc12 | > 30 µM | > 30 µM | 0.053 µM |  |  | 
6 | Cc1c(=O)n(Cc2ccc3oc(=O)ccc3c2)c(=O)n2cc(C(=O)NCc3ccc(F)cc3)sc12 | > 30 µM | > 30 µM | 0.012 µM |  |  | 
7 | COc1cccc(CNC(=O)c2cn3c(=O)n(Cc4ccccc4)c(=O)c(C)c3s2)c1 | 22 µM | > 30 µM | 0.006 µM |  |  | 
8 | Cc1c(=O)n(Cc2ccc(F)cc2)c(=O)n2cc(C(=O)NCc3ccncc3)sc12 [hydrochloride] | > 30 µM | > 30 µM | 0.0605 µM |  |  | 
9 | O=C(NCc1ccc(Cl)c(Cl)c1)c1cn2c(=O)n(Cc3ccc(Cl)cc3)c(=O)cc2s1 | > 100 µM | > 30 µM | 4.3 µM |  |  | 
10 | Cc1c(=O)n(Cc2ccc3cc(F)ccc3n2)c(=O)n2cc(C(=O)NCc3ccc(F)cc3)sc12 | 18 µM | > 30 µM | 0.086 µM |  |  | 
11 | Cc1c(=O)n(Cc2ccccc2)c(=O)n2cc(C(=O)NCc3ccncc3)sc12 [hydrochloride] | > 30 µM | > 30 µM | 0.0487 µM |  |  | 
12 | Cc1c(=O)n(Cc2ccccc2)c(=O)n2cc(C(=O)NCc3ccc(C(F)(F)F)cc3)sc12 | > 100 µM | > 30 µM | 2.21 µM |  |  | 
13 | CCOc1ccc(C(=O)NCc2ccc3c(c2)OCO3)cc1C(=O)NCc1ccc2c(c1)OCO2 |  |  |  | 20 µM | 51 µM | 0.493 µM
14 | Cc1c(=O)n(Cc2ccccc2)c(=O)n2cc(C(=O)NCc3ccccc3)sc12 | 51 µM | > 100 µM | 0.094 µM |  |  | 
15 | COc1ccc(CNC(=O)c2cn3c(=O)n(Cc4ccc(Cl)c(Cl)c4)c(=O)cc3s2)cc1 [6-(3,4-Dichloro-benzyl)-5,7-dioxo-6,7-dihydro-5H-thiazolo[3,2-c]pyrimidine-2-carboxylic acid 4-methoxy-benzylamide] | > 100 µM | > 100 µM | 0.084 µM |  |  | 
16 | Cc1c(=O)n(Cc2ccc(S(N)(=O)=O)cc2)c(=O)n2cc(C(=O)NCc3ccncc3)sc12 [hydrochloride] | > 100 µM | > 30 µM | 0.0463 µM |  |  | 
17 | COC(=O)c1ccc(Cn2c(=O)c(C)c3sc(C(=O)NCc4ccc(F)cc4)cn3c2=O)cc1C | 18 µM | > 100 µM | 0.018 µM |  |  | 
18 | O=C(NCc1ccncc1)c1cn2c(=O)n(Cc3ccccc3)c(=O)cc2s1 [hydrochloride] | 68 µM | > 100 µM | 0.49 µM |  |  | 
19 | CC#CCn1c(=O)c(C)c2sc(C(=O)NCc3ccc(F)cc3)cn2c1=O | > 30 µM | > 100 µM | 0.315 µM |  |  | 
20 | Cc1cccc(CNC(=O)c2cn3c(=O)n(Cc4ccccc4)c(=O)c(C)c3s2)c1 | 19 µM | > 100 µM | 0.025 µM |  |  | 
21 | Cc1c(=O)n(Cc2ccc(C(=O)OCCN(C)C)cc2)c(=O)n2cc(C(=O)NCc3ccc(F)cc3)sc12 [hydrochloride] | > 100 µM | > 30 µM | 0.071 µM |  |  | 

Now from value to compound:

Row | IC50 ([1]; Table 1b) | IC50 ([2]; Table 1b) | IC50 ([3]; MMP13 IC50 (μM), Table 1b) | IC50 ([1]; Table II) | IC50 ([2]; Table II) | IC50 ([3]; MMP13 IC50 (nM), Table II) | SMILES
22 | 12 µM | > 100 µM | 0.025 µM |  |  |  | COc1ccc(CNC(=O)c2cn3c(=O)n(Cc4ccccc4)c(=O)c(C)c3s2)cc1F
23 |  |  |  | > 100 µM | > 100 µM | 9.25 µM | COC(=O)COc1ccc(C(=O)OCc2ccccc2)cc1C(=O)OCc1ccccc1
24 |  |  |  | > 100 µM | > 100 µM | 1.5 µM | O=C(NCc1cccnc1)c1cccc(C(=O)NCc2ccc3c(c2)OCO3)c1
25 |  |  |  | > 30 µM | > 100 µM | 2.3 µM | O=C(OCc1ccccc1)c1cccc(C(=O)OCc2ccccc2)c1 [Isophthalic acid dibenzyl ester]
26 | 36 µM | > 100 µM | 0.00175 µM |  |  |  | COc1ccc(CNC(=O)c2cn3c(=O)n(Cc4ccc(C(=O)O)cc4)c(=O)c(C)c3s2)cc1 [sodium salt]
27 |  |  |  | > 100 µM | > 100 µM | 1.14 µM | COc1cccc(CNC(=O)c2cccc(C(=O)NCc3ccc([N+](=O)[O-])cc3)c2)c1
28 |  |  |  | > 100 µM | > 100 µM | 0.503 µM | COc1cccc(CNC(=O)c2cccc(C(=O)NCc3ccc(Cl)cc3)c2)c1
29 |  |  |  | > 100 µM | > 100 µM | 1.4 µM | COc1cccc(CNC(=O)c2cccc(C(=O)NCc3ccncc3)c2)c1
30 |  |  |  | 76 µM | > 100 µM | 0.385 µM | COc1cccc(CNC(=O)c2cccc(C(=O)NCc3ccc(C)cc3)c2)c1
31 | 19 µM | > 30 µM | 0.0715 µM |  |  |  | COC(=O)c1ccc(Cn2c(=O)c(C)c3sc(C(=O)NCc4cccc(F)c4)cn3c2=O)cc1
32 |  |  |  | 50 µM | > 100 µM | 0.185 µM | COc1ccc(C(=O)NCc2ccc3c(c2)OCO3)cc1C(=O)NCc1ccc2c(c1)OCO2 [N,N′-Bis-1,3-benzodioxol-5-ylmethyl-4-methoxy-isophthalamide]
33 | > 30 µM | > 30 µM | 6.7 µM |  |  |  | O=C(NCc1ccccc1)c1cn2c(=O)n(C(=O)c3ccccc3)c(=O)cc2s1
34 |  |  |  | > 100 µM | > 100 µM | 0.935 µM | COc1cccc(CNC(=O)c2cccc(C(=O)NCc3cccc(N)c3)c2)c1
35 |  |  |  | > 100 µM | > 100 µM | 2.33 µM | O=C(OCc1ccc(F)cc1)c1cccc(C(=O)OCc2ccc(F)cc2)c1 [Isophthalic acid bis-(4-fluoro-benzyl) ester]
36 |  |  |  | > 100 µM | > 100 µM | 1.15 µM | COc1cccc(COC(=O)c2cccc(C(=O)OCc3cccc(OC)c3)c2)c1 [Isophthalic acid bis-(3-methoxy-benzyl) ester]
37 |  |  |  | 9.4 µM | 79 µM | 5.5 µM | O=C(NCc1ccc(Cl)cc1)c1cccc(C(=O)NCc2ccc(Cl)cc2)c1 [N,N′-Bis-(4-chloro-benzyl)-isophthalamide]
38 |  |  |  | 68 µM | > 100 µM | 0.555 µM | COc1cccc(CNC(=O)c2cccc(C(=O)NCc3ccc(Cl)c(Cl)c3)c2)c1
39 |  |  |  | > 100 µM | > 100 µM | 5.65 µM | O=C(NCc1cccc(F)c1)c1cccc(C(=O)NCc2cccc(F)c2)c1 [N,N′-Bis-(3-fluoro-benzyl)-isophthalamide]
40 |  |  |  | > 100 µM | > 100 µM | 2.35 µM | O=C(NCc1ccc(F)cc1)c1cccc(C(=O)NCc2ccc(F)cc2)c1 [N,N′-Bis-(4-fluoro-benzyl)-isophthalamide]
41 | > 10 µM | > 30 µM | 0.0175 µM |  |  |  | COc1ccc(CNC(=O)c2cn3c(=O)n(Cc4ccccc4)c(=O)c(C)c3s2)cn1
42 |  |  |  | > 100 µM | > 100 µM | 1.35 µM | COc1cccc(CNC(=O)c2cccc(C(=O)NCc3cccc(OC)c3)c2)c1 [N,N′-Bis-(3-methoxy-benzyl)-isophthalamide]
43 |  |  |  | > 100 µM | > 100 µM | 7.93 µM | COc1cccc(CNC(=O)c2cccc(C(=O)NCc3cccnc3)c2)c1
